# Test results from US20040254162A1, “Oxazolidinone derivatives as antimicrobials” (priority 2001, published 2004).
# Where “and” joins values, the source holds several entries; their conditions need not be identical. Identical values can stand only once. Like-named read-outs stand apart in the source and are kept apart here.
# Columns and labels:
# [1] = Changes in MIC under different conditions: agar MIC; assay type: cell-based; conditions: strain not given
# [2] = Changes in MIC under different conditions: broth MIC; assay type: cell-based; conditions: strain not given
# MRSA 562 [3] = assay: In vivo activity against MRSA 562 (ED50); parameters: species or system Methicillin Resistant Staphylococcus aureus; conditions: MRSA 562 infection
# anaerobic bacteria = assay: Agar dilution method for anaerobic bacteria, summary; assay type: cell-based
# Clostridium camis = assay: Agar dilution MIC, anaerobes; assay type: cell-based
# Clostridium perfringens = assay: microbe, parasite or virus in culture; assay type: cell-based
# Clostridium difficile = assay: Agar dilution MIC, anaerobes; assay type: cell-based; conditions: for MIC Clostridium difficile: single isolates, anaerobic agar dilution
# Bacteroides fragilis = assay: Agar dilution MIC, anaerobes; assay type: cell-based
# [4] = tested on: Prevotella (Bacteroides) disiens; assay: Agar dilution MIC, anaerobes; assay type: cell-based
# Prevotella bivia = assay: Agar dilution MIC, anaerobes; assay type: cell-based
# Prevotella intermedia = assay: Agar dilution MIC, anaerobes; assay type: cell-based
# [5] = tested on: Prevotella melaninogenica; assay: Agar dilution MIC, anaerobes; assay type: cell-based
# [6] = tested on: Porphyromonas asaccharolytica; assay: Agar dilution MIC, anaerobes; assay type: cell-based
# Fusobacterium montiferum = assay: Agar dilution MIC, anaerobes; assay type: cell-based
# Fusobacterium nucleatum = assay: Agar dilution MIC, anaerobes; assay type: cell-based; conditions: Fusobacterium nucleatum, read-out: MIC Fusobacterium nucleatum
# Porphyromonas gingivalis = assay: Agar dilution MIC, anaerobes; assay type: cell-based
# Fusobacterium varium = assay: Agar dilution MIC, anaerobes; assay type: cell-based
# P. acnes = assay: Agar dilution MIC, anaerobes; assay type: cell-based; conditions: for MIC P. acnes: single isolates, anaerobic agar dilution
# [7] = tested on: Peptostreptococcus magnum; assay: Agar dilution MIC, anaerobes; assay type: cell-based; conditions: for MIC Peptostreptococcus magnum: single isolates, anaerobic agar dilution
# [8] = tested on: Peptostreptococcus micros; assay: Agar dilution MIC, anaerobes; assay type: cell-based
# [9] = tested on: Peptostreptococcus tetradius; assay: Agar dilution MIC, anaerobes; assay type: cell-based
# [10] = tested on: Peptostreptococcus prevotii; assay: Agar dilution MIC, anaerobes; assay type: cell-based
# Eubacterium leutum = assay: Agar dilution MIC, anaerobes; assay type: cell-based
# Fusobacterium necrogenes = assay: Agar dilution MIC, anaerobes; assay type: cell-based
# MRSE 879 = assay: Broth MIC, MRSE 879; assay type: cell-based
# MRSA 15187 = assay: MIC, agar incorporation method
# MRSA 562 [11] = assay: MIC, agar incorporation method
# MRSA 33 = assay: MIC, agar incorporation method
# Ent. faecalis ATCC 29212 = assay: MIC, agar incorporation method
# VRE 6A (Ent. faecium 6A) = assay: MIC, agar incorporation method
# Strep. pyog. ATCC 19615 = assay: MIC, agar incorporation method
# Strep. pne. ATCC 6303 = assay: MIC, agar incorporation method
# S. pneum AB 34 = assay: MIC, agar incorporation method
# G +ve bacteria = assay: Summary of in vitro activity (MIC)
# S. aureus = assay: Summary of in vitro activity (MIC)
# E. faecalis = assay: Summary of in vitro activity (MIC)
# S. pneumoniae = assay: Summary of in vitro activity (MIC)
# [12] = tested on: MRSE 879 adherent bacteria; assay: Sintered glass adherent bacteria model; conditions: MRSE 879, sintered glass adherent bacteria model
# S. aureus ATCC 25923 = assay: MIC, agar incorporation method; conditions: agar incorporation
# [13] = anaerobes, Wilkins Chalgren agar, 48 hour
# [14] = single isolates, anaerobic agar dilution
# [15] = single isolates, anaerobic agar dilution, listed as Quin/dal
# [16] = single isolate, anaerobic agar dilution
molecule,measurement,setting,value
CN[C@H](CC(C)C)C(=O)N[C@H]1C(=O)N[C@@H](CC(N)=O)C(=O)N[C@H]2C(=O)N[C@H]3C(=O)N[C@H](C(=O)N[C@H](C(=O)O)c4cc(O)cc(O)c4-c4cc3ccc4O)[C@H](O)c3ccc(c(Cl)c3)Oc3cc2cc(c3O[C@@H]2O[C@H](CO)[C@@H](O)[C@H](O)[C@H]2O[C@H]2C[C@](C)(N)[C@H](O)[C@H](C)O2)Oc2ccc(cc2Cl)[C@H]1O [Vancomycin],Agar MIC,[1],1 µg/mL
same,Broth MIC +50% Sheep serum,[2],1 µg/mL
same,Broth MIC Normal MH broth,[2],1 µg/mL
same,ED50 (mg/kg body weight),MRSA 562 [3]; IV,8.84 (IV) mg/kg body weight
same,MIC50,anaerobic bacteria; 48 h,32 µg/mL
same,MIC90,anaerobic bacteria; 48 h,32 µg/mL
same,Geometric Mean,anaerobic bacteria; anaerobes,9.306 µg/mL
same,MIC Range,anaerobic bacteria; anaerobes,0.5 to 32 µg/mL
same,MIC,"Clostridium camis; Clostridium, read-out: MIC Clostridium camis",2 µg/mL
same,MIC,"Clostridium perfringens; Clostridium perfringens, read-out: MIC Clostridium perfringens",0.5 µg/mL
same,MIC,"Clostridium difficile; Clostridioides difficile, read-out: MIC Clostridium difficile, single isolates, anaerobic agar dilution",2 µg/mL
same,MIC Clostridium difficile,Clostridium difficile,4 µg/mL
same,MIC,"Bacteroides fragilis; Bacteroides fragilis, read-out: MIC Bacteroides fragilis",> 16 µg/mL
same,MIC,[4]; read-out: MIC Prevotella (Bacteroides) disiens,> 16 µg/mL
same,MIC,"Prevotella bivia; Prevotella bivia, read-out: MIC Prevotella bivia",> 16 µg/mL
same,MIC,"Prevotella intermedia; Prevotella intermedia, read-out: MIC Prevotella intermedia",> 16 µg/mL
same,MIC,"[5]; Prevotella melaninogenica, read-out: MIC Prevotella melaninogenica",> 16 µg/mL
same,MIC,"[6]; Porphyromonas asaccharolytica, read-out: MIC Porphyromonas asaccharolytica",2 µg/mL
same,MIC,"Fusobacterium montiferum; Fusobacterium, read-out: MIC Fusobacterium montiferum",> 16 µg/mL
same,MIC,Fusobacterium nucleatum,> 16 µg/mL
same,MIC,"Porphyromonas gingivalis; Porphyromonas gingivalis, read-out: MIC Porphyromonas gingivalis",8 µg/mL
same,MIC,"Fusobacterium varium; Fusobacterium varium, read-out: MIC Fusobacterium varium",> 16 µg/mL
same,MIC,"P. acnes; Cutibacterium acnes, read-out: MIC P. acnes, single isolates, anaerobic agar dilution",0.5 µg/mL
same,MIC P. acnes,P. acnes,1 µg/mL
same,MIC,"[7]; Peptostreptococcus, read-out: MIC Peptostreptococcus magnum, single isolates, anaerobic agar dilution",0.5 µg/mL
same,MIC Peptostreptococcus magnum,[7],0.25 µg/mL
same,MIC,"[8]; Parvimonas micra, read-out: MIC Peptostreptococcus micros",1 µg/mL
same,MIC,"[9]; Anaerococcus tetradius, read-out: MIC Peptostreptococcus tetradius",1 µg/mL
same,MIC,"[10]; Anaerococcus prevotii, read-out: MIC Peptostreptococcus prevotii",0.125 µg/mL
same,MIC,"Eubacterium leutum; Eubacterium, read-out: MIC Eubacterium leutum",1 µg/mL
same,MIC,"Fusobacterium necrogenes; Fusobacterium necrogenes, read-out: MIC Fusobacterium necrogenes",> 16 µg/mL
same,MIC,"MRSE 879; Staphylococcus epidermidis, MRSE, read-out: broth MIC",1 µg/mL
same,MIC,"MRSA 15187; Staphylococcus aureus, MRSA, read-out: MIC MRSA 15187",0.5 µg/mL
same,MIC,"MRSA 562 [11]; Staphylococcus aureus, MRSA",0.5 µg/mL
same,MIC,"MRSA 562 [11]; Staphylococcus aureus, MRSA, read-out: MIC MRSA 562",0.5 µg/mL
same,MIC,"MRSA 33; Staphylococcus aureus, MRSA, read-out: MIC MRSA 33",0.5 µg/mL
same,MIC,"Ent. faecalis ATCC 29212; Enterococcus faecalis, ATCC29212, read-out: MIC E. faecalis 29212",4 µg/mL
same,MIC,"VRE 6A (Ent. faecium 6A); Enterococcus, VRE, read-out: MIC VRE 6A",> 16 µg/mL
same,MIC,"Strep. pyog. ATCC 19615; Streptococcus pyogenes, ATCC19615, read-out: MIC S. pyogenes 19615",0.5 µg/mL
same,MIC,"Strep. pne. ATCC 6303; Streptococcus pneumoniae, ATCC6303, read-out: MIC S. pneum 6303",0.5 µg/mL
same,MIC,"S. pneum AB 34; Streptococcus pneumoniae, AB34, read-out: MIC S. pneum AB 34",0.25 µg/mL
same,MIC50,G +ve bacteria,0.5 µg/mL
same,MIC90,G +ve bacteria,16 µg/mL
same,MIC50,S. aureus; Staphylococcus aureus,1 µg/mL
same,MIC90,S. aureus; Staphylococcus aureus,1 µg/mL
same,MIC50,E. faecalis; Enterococcus faecalis,16 µg/mL
same,MIC90,E. faecalis; Enterococcus faecalis,16 µg/mL
same,MIC50,S. pneumoniae; Streptococcus pneumoniae,0.5 µg/mL
same,MIC90,S. pneumoniae; Streptococcus pneumoniae,0.5 µg/mL
same,MIC,"S. pneumoniae; Streptococcus pneumoniae, read-out: Geometric Mean of in vitro activity (MIC)",0.39 µg/mL
same,concentration which would kill adherent bacteria,[12],8 µg/mL
Synercid,Geometric Mean,anaerobic bacteria; anaerobes,1.614 µg/mL
same,MIC Range,anaerobic bacteria; anaerobes,0.062 to 16 µg/mL
same,MIC50,anaerobic bacteria; [13],1 µg/mL
same,MIC90,anaerobic bacteria; [13],16 µg/mL
same,MIC Clostridium camis,Clostridium camis; [14],0.5 µg/mL
same,MIC Clostridium perfringens,Clostridium perfringens; [14],0.5 µg/mL
same,MIC Clostridium difficile,Clostridium difficile,0.5 µg/mL
same,MIC Bacteroides fragilis,Bacteroides fragilis; [15],8 µg/mL and >8 µg/mL
same,MIC Prevotella (Bacteroides) disiens,[4]; [15],>8 µg/mL and 8 µg/mL
same,MIC Prevotella bivia,Prevotella bivia; [16],2 µg/mL
same,MIC Prevotella intermedia,Prevotella intermedia; [14],0.25 µg/mL
same,MIC Prevotella melaninogenica,[5]; [15],1 µg/mL and 2 µg/mL
same,MIC Porphyromonas asaccharolytica,[6]; [16],<=.125 μg/ml
same,MIC Fusobacterium montiferum,Fusobacterium montiferum; [15],8 µg/mL and >8 µg/mL and 4 µg/mL
same,MIC Porphyromonas gingivalis,Porphyromonas gingivalis; [16],0.25 µg/mL
same,MIC Fusobacterium varium,Fusobacterium varium; [14],>8 µg/mL
same,MIC P. acnes,P. acnes,<=.125 μg/ml
same,MIC Peptostreptococcus magnum,[7],0.25 µg/mL
same,MIC Peptostreptococcus micros,[8]; [15],0.5 µg/mL and 1 µg/mL
same,MIC Peptostreptococcus tetradius,[9]; [14],1 µg/mL
same,MIC Peptostreptococcus prevotii,[10]; [14],0.25 µg/mL
same,MIC Eubacterium leutum,Eubacterium leutum; [14],0.25 µg/mL
same,MIC Fusobacterium necrogenes,Fusobacterium necrogenes; [16],0.25 µg/mL
same,broth MIC,MRSE 879; MRSE 879,0.5 µg/mL
same,concentration which would kill adherent bacteria,[12],2 µg/mL
CC(=O)NC[C@H]1CN(c2ccc(N3CCC(N(C)C(=O)c4ccc([N+](=O)[O-])o4)CC3)c(F)c2)C(=O)O1 [Compound No. 44],Agar MIC,[1],<0.1 µg/mL
same,Broth MIC +50% Sheep serum,[2],0.25 µg/mL
same,Broth MIC Normal MH broth,[2],<0.1 µg/mL
same,ED50 (mg/kg body weight) PO,MRSA 562 [3]; PO,>25 mg/kg body weight
same,MIC S. aureus 25923,S. aureus ATCC 25923,0.25 µg/mL
same,MIC MRSA 15187,MRSA 15187; agar incorporation,<0.1 µg/mL
same,MIC,"MRSA 562 [11]; MRSA 562, Table 5",<0.1 µg/mL
same,MIC MRSA 562,"MRSA 562 [11]; agar incorporation, Table 1",<0.1 µg/mL
same,MIC MRSA 33,MRSA 33; agar incorporation,<0.1 µg/mL
same,MIC E. faecalis 29212,Ent. faecalis ATCC 29212; agar incorporation,0.25 µg/mL
same,MIC VRE 6A,VRE 6A (Ent. faecium 6A); agar incorporation,<0.1 µg/mL
same,MIC S. pyogenes 19615,Strep. pyog. ATCC 19615; agar incorporation,0.5 µg/mL
same,MIC S. pneum 6303,Strep. pne. ATCC 6303; agar incorporation,2 µg/mL
same,MIC S. pneum AB 34,S. pneum AB 34; agar incorporation,2 µg/mL
same,MIC50,"G +ve bacteria; G +ve, Number 49",0.5 µg/mL
same,MIC90,"G +ve bacteria; G +ve, Number 49",2 µg/mL
same,Geometric Mean of in vitro activity (MIC),G +ve bacteria; Gram + ve,0.31 µg/mL
same,Geometric Mean of in vitro activity (MIC),S. aureus; S. aureus,0.11 µg/mL
same,MIC50,"S. aureus; S. aureus, Number 8",0.064 µg/mL
same,MIC90,"S. aureus; S. aureus, Number 8",0.25 µg/mL
same,Geometric Mean of in vitro activity (MIC),E. faecalis; E. faecalis,0.11 µg/mL
same,MIC50,"E. faecalis; E. faecalis, Number 7",0.064 µg/mL
same,MIC90,"E. faecalis; E. faecalis, Number 7",0.25 µg/mL
same,Geometric Mean of in vitro activity (MIC),S. pneumoniae; S. pneumoniae,0.96 µg/mL
same,MIC50,"S. pneumoniae; S. pneumoniae, Number 19",1 µg/mL
same,MIC90,"S. pneumoniae; S. pneumoniae, Number 19",2 µg/mL
